Test results: patent publication US20250084041A1, “ANTIMICROBIAL COMPOUNDS AND METHODS” (Curza Global, LLC, priority 2021, published 2025)
Where a name gives a salt, the structure may show the parent alone. Read-outs that look alike come from different tables or passages of the source.

Tests used:
[1] = target: Rabbit Reticulocyte Lysate; assay: Rabbit Reticulocyte Lysate: inhibition of eukaryotic protein synthesis (luciferase); assay type: biochemical; details: 30° C. 90 minutes, read-out: Retic. IC50
Outline: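 Nuclease-treated rabbit reticulocyte lysate translating luciferase control RNA with complete amino acids; compounds in 8-point 2-fold dilutions, 90 min at 30° C. Luminescence read after luciferase reagent; % inhibition versus water (no-inhibitor) control, no-RNA wells as background.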

S. aureus (Sa) = assay: Broth microdilution MIC, S. aureus; assay type: cell-based; details: for MIC: Staphylococcus aureus, read-out: Sa + bicarb 25 (MIC)
Outline: (§1)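 Modified CLSI M07-A9 method; cation-adjusted Mueller-Hinton broth, optionally with sodium bicarbonate (25 mM final) or heat-inactivated human serum (0-50%); 5×10^4 CFU/well inoculum.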

E. coli S30 extract = assay: E. coli S30 extract: inhibition of bacterial protein synthesis (luciferase); assay type: biochemical; details: 37° C. 1 hour
Outline: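 Coupled transcription-translation in E. coli S30 extract, programmed with pBESTluc plasmid, was run with 8-point 2-fold compound dilutions for 1 h at 37 °C. After a cold stop, luciferase luminescence was read and percent inhibition calculated against no-inhibitor controls.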

E. faecalis (Ef) = assay: Broth microdilution MIC, E. faecalis; assay type: cell-based; details: for MIC: Enterococcus faecalis, read-out: Ef + bicarb 25 (MIC)
Outline: as §1

A. baumannii (Ab) = assay: Broth microdilution MIC, A. baumannii; assay type: cell-based; details: for MIC: Acinetobacter baumannii, read-out: Ab + bicarb 25 (MIC); for Ab + bicarb 25 (MIC): hydrochloride salt
Outline: as §1

E. coli (Ec) = assay: Broth microdilution MIC, E. coli; assay type: cell-based; details: for MIC: Escherichia coli, read-out: E. coli + bicarb 25 (MIC)
Outline: as §1

P. aeruginosa (Pa) = assay: Broth microdilution MIC, P. aeruginosa; assay type: cell-based; details: for MIC: Pseudomonas aeruginosa, read-out: Pa + bicarb 25 (MIC)
Outline: as §1

[2] = S. aureus, CAMHB supplemented with sodium bicarbonate 25 mM
[3] = E. coli, CAMHB supplemented with sodium bicarbonate 25 mM
[4] = P. aeruginosa, CAMHB supplemented with sodium bicarbonate 25 mM
[5] = E. faecalis, CAMHB supplemented with sodium bicarbonate 25 mM
[6] = A. baumannii, CAMHB supplemented with sodium bicarbonate 25 mM

Compound | IC50 [1] | Sa + bicarb 25 (MIC) (S. aureus (Sa); [2]) | IC50 (E. coli S30 extract; hydrochloride salt) | MIC (E. faecalis (Ef)) | MIC (A. baumannii (Ab)) | E. coli + bicarb 25 (MIC) (E. coli (Ec); [3]) | Pa + bicarb 25 (MIC) (P. aeruginosa (Pa); [4]) | MIC (S. aureus (Sa); [2]) | MIC (E. faecalis (Ef); [5]) | Ab + bicarb 25 (MIC) (A. baumannii (Ab); [6]) | MIC (E. coli (Ec); [3]) | MIC (P. aeruginosa (Pa); [4]) | Ef + bicarb 25 (MIC) (E. faecalis (Ef); E. faecalis, CAMHB supplemented with sodium bicarbonate 25 mM, hydrochloride salt) | IC50 (E. coli S30 extract) | MIC (A. baumannii (Ab); [6]) | MIC (S. aureus (Sa)) | MIC (E. coli (Ec)) | MIC (P. aeruginosa (Pa))
CC(C)(N)C(=O)N1CCN(C(=O)Nc2ccn(C3CCC(CN4C[C@@H]5[C@@H](N)[C@@H]5C4)CC3)c(=O)n2)CC1 (stereo partly drawn) [Compound 5, 4-(2-Amino-2-methylpropanoyl)-N-(1-(4-((exo-6-amino-3-azabicyclo[3.1.0]hexan-3-yl)methyl)cyclohexyl)-2-oxo-1,2-dihydropyrimidin-4-yl)piperazine-1-carboxamide hydrochloride salt] | ≥ 1000 nM | +++ (An MIC value (μg/mL) that is less than 8 μg/mL) | < 500 nM | < 8 µg/mL | 8 to 32 µg/mL | +++ (An MIC value (μg/mL) that is less than 8 μg/mL) | + (An MIC value (μg/mL) that is 32 μg/mL or greater) | – | – | – | – | – | – | – | – | – | – | –
CC(C)(N)C(=O)N1CCN(C(=O)Nc2ccn(C3CCC(CN4C[C@@H]5[C@@H](N)[C@@H]5C4)CC3)c(=O)n2)CC1 (stereo partly drawn) [Compound 6, 4-(2-Amino-2-methylpropanoyl)-N-(1-(cis-4-((exo-6-amino-3-azabicyclo[3.1.0]hexan-3-yl)methyl)cyclohexyl)-2-oxo-1,2-dihydropyrimidin-4-yl)piperazine-1-carboxamide hydrochloride salt] | ≥ 1000 nM | – | ≥ 1000 nM | – | – | – | – | < 8 µg/mL | 8 to 32 µg/mL | + (An MIC value (μg/mL) that is 32 μg/mL or greater) | < 8 µg/mL | > 32 µg/mL | – | – | – | – | – | –
CC(C)(N)C(=O)N1CCN(C(=O)Nc2ccn(C3CCC(CN4C[C@@H]5[C@@H](N)[C@@H]5C4)CC3)c(=O)n2)CC1 (stereo partly drawn) [Compound 7, 4-(2-Amino-2-methylpropanoyl)-N-(1-(trans-4-((exo-6-amino-3-azabicyclo[3.1.0]hexan-3-yl)methyl)cyclohexyl)-2-oxo-1,2-dihydropyrimidin-4-yl)piperazine-1-carboxamide hydrochloride salt] | ≥ 1000 nM | +++ (An MIC value (μg/mL) that is less than 8 μg/mL) | < 500 nM | – | – | +++ (An MIC value (μg/mL) that is less than 8 μg/mL) | + (An MIC value (μg/mL) that is 32 μg/mL or greater) | – | – | ++ (An MIC value (μg/mL) that is 8 μg/mL or greater and less than 32 μg/mL) | – | – | +++ (An MIC value (μg/mL) that is less than 8 μg/mL) | – | – | – | – | –
CC(C)(N)C(=O)N1CCN(C(=O)Nc2ccn(C3CCC(CN4C[C@@H]5[C@@H](CN)[C@@H]5C4)CC3)c(=O)n2)CC1 (stereo partly drawn) [Compound 8, 4-(2-Amino-2-methylpropanoyl)-N-(1-(4-((exo-6-(aminomethyl)-3-azabicyclo[3.1.0]hexan-3-yl)methyl)cyclohexyl)-2-oxo-1,2-dihydropyrimidin-4-yl)piperazine-1-carboxamide hydrochloride salt] | ≥ 1000 nM | – | – | – | – | – | – | < 8 µg/mL | < 8 µg/mL | – | < 8 µg/mL | 8 to 32 µg/mL | – | < 500 nM | > 32 µg/mL | – | – | –
CC(C)(N)C(=O)N1CCN(C(=O)Nc2ccn(C3CCC(CN4CCCC(N)CC4)CC3)c(=O)n2)CC1 (stereo not drawn) [Compound 9, 4-(2-Amino-2-methylpropanoyl)-N-(1-(4-((4-aminoazepan-1-yl)methyl)cyclohexyl)-2-oxo-1,2-dihydropyrimidin-4-yl)piperazine-1-carboxamide hydrochloride salt] | ≥ 1000 nM | – | – | < 8 µg/mL | 8 to 32 µg/mL | – | – | – | – | – | – | – | – | < 500 nM | – | < 8 µg/mL | < 8 µg/mL | > 32 µg/mL
CC(C)(N)C(=O)N1CCN(C(=O)Nc2ccn(C3=CCC(CN4C[C@@H]5[C@@H](N)[C@@H]5C4)CC3)c(=O)n2)CC1 (stereo partly drawn) [Compound 12, 4-(2-Amino-2-methylpropanoyl)-N-(1-(4-(((1R,5S,6s)-6-amino-3-azabicyclo[3.1.0]hexan-3-yl)methyl)cyclohex-1-en-1-yl)-2-oxo-1,2-dihydropyrimidin-4-yl)piperazine-1-carboxamide hydrochloride salt] | ≥ 1000 nM | – | – | – | – | – | – | < 8 µg/mL | < 8 µg/mL | – | < 8 µg/mL | > 32 µg/mL | – | < 500 nM | 8 to 32 µg/mL | – | – | –
